Measurements as given in BindingDB's records for doi:10.1016/j.chembiol.2016.02.015 (Max Planck Institute of Molecular Physiology, 2016).

What was measured:
[1] = molecular target: Casein kinase I isoform epsilon (Homo sapiens, UniProt P49674); assay: KinaseGlo Plus Luminescent Assay; details: pH 7.5
Protocol: (§1) A stock solution of 5 % DMSO (BioReagent for molecular biology, Sigma Aldrich) in water was prepared. The CK1 substrate peptide RRKDLHDDEEDEAMSITA (Jena Bioscience, cat. no. PE-206, 2 mM stock solution in water) was diluted in water to a final concentration of 250 μM. CK1δ or CK1Ɛ kinases were diluted with CK1 dilution buffer to 50 ng / µL. In addition, fresh Reaction buffer was prepared containing 250 mM Tris-HCl (pH 7.5), 50 mM MgCl2, 5 mM DTT and 0.5 mg / mL bovine serum albumin (BSA). Compounds were serially diluted in 5 % DMSO solution to the desired concentrations (maximal concentration employed in the assay was 50 µM). Additional samples included blank sample containing Reaction buffer, water and CK1δ / CK1Ɛ kinase and control sample containing Reaction buffer, CK1 substrate peptide and CK1δ / CK1Ɛ kinase. CK1 substrate peptide, Reaction buffer and CK1δ / CK1Ɛ kinase stock solutions were mixed in 1:1:1 ratio. 6 μL of this mixtur

[2] = molecular target: Casein kinase I isoform alpha (Homo sapiens, UniProt P48729); assay: Radiometric-Based Assay (CK1α)
Chain of Casein kinase I isoform alpha (P48729 whole entry, canonical isoform): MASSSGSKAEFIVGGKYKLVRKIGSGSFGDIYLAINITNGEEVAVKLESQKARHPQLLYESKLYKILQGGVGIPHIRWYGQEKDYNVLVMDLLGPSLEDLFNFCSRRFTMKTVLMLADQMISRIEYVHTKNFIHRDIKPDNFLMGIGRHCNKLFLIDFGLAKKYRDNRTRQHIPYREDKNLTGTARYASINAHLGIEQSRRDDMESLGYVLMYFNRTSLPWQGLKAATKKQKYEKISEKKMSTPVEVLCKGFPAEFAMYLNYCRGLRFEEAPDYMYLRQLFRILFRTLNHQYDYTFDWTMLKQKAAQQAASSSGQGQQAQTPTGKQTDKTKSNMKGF
Protocol: Single-point measurements analyses and subsequent dose-dependent investigations of selected pteridine derivatives for inhibition of CK1α were performed at Reaction Biology (USA) using a radiometric-based assay and ATP concentration of 10 µM. For more details related to the experimental conditions employed please consult the following websites: http://www.reactionbiology.com/webapps/site/KinaseDetail.aspx.

[3] = molecular target: Casein kinase I isoform delta (Homo sapiens, UniProt P48730); assay: KinaseGlo Plus Luminescent Assay; details: pH 7.5
Chain of Casein kinase I isoform delta (P48730 whole entry, canonical isoform): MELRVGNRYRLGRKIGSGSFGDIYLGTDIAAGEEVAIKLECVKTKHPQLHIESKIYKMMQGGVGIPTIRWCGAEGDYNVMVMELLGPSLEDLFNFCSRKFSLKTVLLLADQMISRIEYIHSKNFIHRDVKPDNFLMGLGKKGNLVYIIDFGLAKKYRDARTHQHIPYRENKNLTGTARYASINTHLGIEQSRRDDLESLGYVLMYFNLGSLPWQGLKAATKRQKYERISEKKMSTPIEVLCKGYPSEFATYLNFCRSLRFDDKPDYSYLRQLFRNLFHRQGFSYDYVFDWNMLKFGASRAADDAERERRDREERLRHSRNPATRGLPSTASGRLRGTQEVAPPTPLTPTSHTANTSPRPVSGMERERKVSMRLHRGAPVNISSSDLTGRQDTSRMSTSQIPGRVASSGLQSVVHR
Protocol: as §1

[4] = molecular target: T1, Epidermal growth factor receptor [1-973] (Homo sapiens, UniProt P00533); assay: Radiometric-Based Assay (Epiblastin A)
T1 construct: 1-973
T1 sequence (P00533 1-973): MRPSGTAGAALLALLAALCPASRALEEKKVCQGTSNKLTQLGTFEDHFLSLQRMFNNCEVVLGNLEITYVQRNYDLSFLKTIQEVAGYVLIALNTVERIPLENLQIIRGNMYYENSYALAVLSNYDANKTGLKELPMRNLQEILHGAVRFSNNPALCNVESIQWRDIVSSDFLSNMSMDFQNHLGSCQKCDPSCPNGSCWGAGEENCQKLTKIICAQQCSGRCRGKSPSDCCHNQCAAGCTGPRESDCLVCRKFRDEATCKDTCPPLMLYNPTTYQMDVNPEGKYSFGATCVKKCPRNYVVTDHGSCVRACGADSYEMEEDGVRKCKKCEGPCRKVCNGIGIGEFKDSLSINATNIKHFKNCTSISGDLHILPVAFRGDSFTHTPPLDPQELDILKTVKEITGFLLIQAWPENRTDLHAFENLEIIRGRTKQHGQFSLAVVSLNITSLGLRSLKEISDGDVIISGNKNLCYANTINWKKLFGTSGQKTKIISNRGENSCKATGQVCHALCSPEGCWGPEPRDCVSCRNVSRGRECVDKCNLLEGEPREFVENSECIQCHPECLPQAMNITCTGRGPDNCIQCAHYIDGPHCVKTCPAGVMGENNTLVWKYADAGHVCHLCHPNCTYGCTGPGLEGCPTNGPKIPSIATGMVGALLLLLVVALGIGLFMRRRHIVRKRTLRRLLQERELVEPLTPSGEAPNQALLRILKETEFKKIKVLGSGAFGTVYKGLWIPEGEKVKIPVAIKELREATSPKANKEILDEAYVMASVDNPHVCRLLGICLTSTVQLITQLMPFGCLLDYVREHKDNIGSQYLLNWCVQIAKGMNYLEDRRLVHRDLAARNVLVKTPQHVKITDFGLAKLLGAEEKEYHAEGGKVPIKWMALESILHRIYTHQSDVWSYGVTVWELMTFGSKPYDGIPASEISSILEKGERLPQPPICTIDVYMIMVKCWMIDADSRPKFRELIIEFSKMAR
From the text: (§2) Dose-dependent investigations of Epiblastin A against BrSK1, Egfr, eEF2k, Mknk2, Ripk2 and Stk10 have been performed under the same experimental setup, i.e. at Km-ATP value. Half-maximal inhibitory concentrations (IC50) were obtained by fitting the obtained data with three parameter nonlinear regression analysis using GraphPad Prism version 6.00 for Windows (GraphPad Software, USA). For more details related to the experimental conditions employed at Eurofins please consult the following website: http://www.eurofins.com/pharma-services/pharma-discovery-services/services/in-vitropharmacology/kinases/biochemical.aspx

[5] = molecular target: T2, Eukaryotic elongation factor 2 kinase (Homo sapiens, UniProt O00418); assay: Radiometric-Based Assay (Epiblastin A)
T2 sequence (O00418 whole entry): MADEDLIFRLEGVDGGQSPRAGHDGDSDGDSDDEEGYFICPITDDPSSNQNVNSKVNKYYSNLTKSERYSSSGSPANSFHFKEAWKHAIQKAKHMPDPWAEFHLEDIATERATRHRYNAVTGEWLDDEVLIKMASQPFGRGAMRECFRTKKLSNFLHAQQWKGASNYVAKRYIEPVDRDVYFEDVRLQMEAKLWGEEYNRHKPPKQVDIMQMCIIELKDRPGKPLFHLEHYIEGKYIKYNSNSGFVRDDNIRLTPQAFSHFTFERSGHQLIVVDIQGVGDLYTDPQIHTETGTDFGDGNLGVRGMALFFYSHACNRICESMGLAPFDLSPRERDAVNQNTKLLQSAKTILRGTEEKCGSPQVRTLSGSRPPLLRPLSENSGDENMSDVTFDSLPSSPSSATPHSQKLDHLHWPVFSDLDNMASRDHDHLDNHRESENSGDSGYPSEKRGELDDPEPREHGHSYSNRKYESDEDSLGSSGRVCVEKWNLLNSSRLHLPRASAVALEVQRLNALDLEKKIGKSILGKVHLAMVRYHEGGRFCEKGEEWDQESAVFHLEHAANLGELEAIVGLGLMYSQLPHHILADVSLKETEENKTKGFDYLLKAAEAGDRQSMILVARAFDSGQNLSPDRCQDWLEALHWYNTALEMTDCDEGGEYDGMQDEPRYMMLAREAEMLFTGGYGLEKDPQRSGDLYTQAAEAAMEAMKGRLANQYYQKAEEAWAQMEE
From the text: as §2

[6] = molecular target: MAP kinase-interacting serine/threonine-protein kinase 2 (Homo sapiens, UniProt Q9HBH9); assay: Radiometric-Based Assay (Epiblastin A)
Chain of MAP kinase-interacting serine/threonine-protein kinase 2 (Q9HBH9 whole entry): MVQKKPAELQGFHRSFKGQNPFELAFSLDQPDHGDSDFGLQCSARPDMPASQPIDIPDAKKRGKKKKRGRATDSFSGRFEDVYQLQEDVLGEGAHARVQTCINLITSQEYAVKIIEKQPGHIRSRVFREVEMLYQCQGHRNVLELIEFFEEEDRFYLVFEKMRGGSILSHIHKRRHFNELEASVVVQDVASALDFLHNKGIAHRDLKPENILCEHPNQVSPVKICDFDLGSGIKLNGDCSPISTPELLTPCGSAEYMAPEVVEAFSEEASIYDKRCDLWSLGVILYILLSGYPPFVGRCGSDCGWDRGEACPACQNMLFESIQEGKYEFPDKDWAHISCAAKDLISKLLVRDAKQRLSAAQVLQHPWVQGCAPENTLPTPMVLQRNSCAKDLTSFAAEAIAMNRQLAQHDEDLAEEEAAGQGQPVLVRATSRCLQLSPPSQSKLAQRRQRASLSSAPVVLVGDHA
From the text: as §2

[7] = molecular target: Receptor-interacting serine/threonine-protein kinase 2 (Homo sapiens, UniProt O43353); assay: Radiometric-Based Assay (Epiblastin A)
Chain of Receptor-interacting serine/threonine-protein kinase 2 (O43353 whole entry): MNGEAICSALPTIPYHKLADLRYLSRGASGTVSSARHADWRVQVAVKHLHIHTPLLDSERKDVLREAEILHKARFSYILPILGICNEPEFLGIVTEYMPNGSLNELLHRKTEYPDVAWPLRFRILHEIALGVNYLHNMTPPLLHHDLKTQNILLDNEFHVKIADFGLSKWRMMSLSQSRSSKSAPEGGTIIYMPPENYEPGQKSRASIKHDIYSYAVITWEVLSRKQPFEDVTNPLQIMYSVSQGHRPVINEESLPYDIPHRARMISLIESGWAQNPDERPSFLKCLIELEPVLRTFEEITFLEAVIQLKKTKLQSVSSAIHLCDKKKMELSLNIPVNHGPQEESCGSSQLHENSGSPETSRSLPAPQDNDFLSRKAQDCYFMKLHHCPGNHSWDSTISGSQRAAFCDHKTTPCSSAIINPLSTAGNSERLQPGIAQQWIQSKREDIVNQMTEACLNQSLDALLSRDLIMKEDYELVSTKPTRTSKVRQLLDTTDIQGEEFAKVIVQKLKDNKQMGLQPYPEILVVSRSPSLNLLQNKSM
From the text: as §2

[8] = molecular target: T3, Serine/threonine-protein kinase BRSK1 (Homo sapiens, UniProt Q8TDC3); assay: Radiometric-Based Assay (Epiblastin A)
T3 sequence (Q8TDC3 whole entry): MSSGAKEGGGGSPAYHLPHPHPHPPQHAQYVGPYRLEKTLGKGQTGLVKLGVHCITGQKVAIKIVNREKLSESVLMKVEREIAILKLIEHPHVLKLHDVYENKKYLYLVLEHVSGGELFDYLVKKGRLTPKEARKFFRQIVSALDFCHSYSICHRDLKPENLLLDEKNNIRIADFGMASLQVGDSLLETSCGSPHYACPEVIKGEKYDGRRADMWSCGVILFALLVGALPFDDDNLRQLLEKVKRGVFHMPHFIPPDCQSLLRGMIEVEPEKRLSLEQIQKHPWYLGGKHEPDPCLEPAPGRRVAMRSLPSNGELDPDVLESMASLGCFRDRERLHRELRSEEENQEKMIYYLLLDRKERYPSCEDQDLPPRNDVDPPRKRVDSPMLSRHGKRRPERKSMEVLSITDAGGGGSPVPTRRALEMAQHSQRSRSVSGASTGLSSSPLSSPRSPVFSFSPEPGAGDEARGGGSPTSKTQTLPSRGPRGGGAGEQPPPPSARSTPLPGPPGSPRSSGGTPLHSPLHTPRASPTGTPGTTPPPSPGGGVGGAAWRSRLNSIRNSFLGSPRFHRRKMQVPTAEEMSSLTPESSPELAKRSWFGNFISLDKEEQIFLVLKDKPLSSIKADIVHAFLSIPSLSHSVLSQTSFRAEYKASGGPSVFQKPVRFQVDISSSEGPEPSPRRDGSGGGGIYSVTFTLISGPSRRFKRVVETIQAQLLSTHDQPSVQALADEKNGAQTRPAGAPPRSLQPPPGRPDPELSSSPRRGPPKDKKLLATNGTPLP
From the text: as §2

Chain of Casein kinase I isoform epsilon (P49674 whole entry, canonical isoform): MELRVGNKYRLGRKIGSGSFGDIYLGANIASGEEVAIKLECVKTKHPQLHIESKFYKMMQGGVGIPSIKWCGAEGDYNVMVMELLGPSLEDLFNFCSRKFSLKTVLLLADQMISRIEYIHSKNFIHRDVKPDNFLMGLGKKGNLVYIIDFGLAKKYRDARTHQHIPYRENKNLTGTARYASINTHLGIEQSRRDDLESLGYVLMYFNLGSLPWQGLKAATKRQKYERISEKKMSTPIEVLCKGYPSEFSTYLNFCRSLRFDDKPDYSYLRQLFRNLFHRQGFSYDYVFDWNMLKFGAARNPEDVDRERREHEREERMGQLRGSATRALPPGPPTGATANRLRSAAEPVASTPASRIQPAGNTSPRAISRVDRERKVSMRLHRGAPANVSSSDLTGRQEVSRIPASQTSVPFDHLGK

Row | SMILES | IC50 [1] | IC50 [2] | IC50 [3] | further results
1 | Nc1nc(N)c2nc(-c3c(Cl)cccc3Cl)c(N)nc2n1 [6-(2,6-dichlorophenyl)pteridine-2,4,7-triamine (24)] | 38.9 µM | – | – | –
2 | Nc1nc(N)c2nc(-c3cccc(Br)c3)c(N)nc2n1 [6-(3-bromophenyl)pteridine-2,4,7-triamine (18)] | – | 9.3 µM | 2.5 µM | –
3 | Nc1nc(N)c2nc(-c3c(F)cccc3F)c(N)nc2n1 [6-(2,6-difluorophenyl)pteridine-2,4,7-triamine (27)] | 51.5 µM | – | 35.7 µM | –
4 | Nc1nc(N)c2nc(-c3ccccc3F)c(N)nc2n1 [6-(2-fluorophenyl)pteridine-2,4,7-triamine (23)] | 28.3 µM | – | – | –
5 | Cc1cccc(-c2nc3c(N)nc(N)nc3nc2N)c1 [6-m-Tolyl-pteridine-2,4,7-triamine] | – | – | 20.2 µM | –
6 | Nc1nc(N)c2nc(-c3ccccc3)cnc2n1 [6-phenylpteridine-2,4-diamine (35)] | 6 µM | 29.5 µM | 80.6 µM | –
7 | Nc1nc(N)c2nc(-c3ccc(Cl)cc3Cl)c(N)nc2n1 [6-(2,4-dichlorophenyl)pteridine-2,4,7-triamine (25)] | 4.3 µM | 55.6 µM | – | –
8 | COc1cccc(-c2nc3c(N)nc(N)nc3nc2N)c1 [6-(3-methoxyphenyl)pteridine-2,4,7-triamine (20)] | 26.3 µM | – | 12.3 µM | –
9 | Nc1ccc(-c2nc3c(N)nc(N)nc3nc2N)cc1 [6-(4-aminophenyl)pteridine-2,4,7-triamine (10)] | – | – | 81.2 µM | –
10 | Nc1nc(N)c2nc(-c3cccs3)c(N)nc2n1 [6-(thiophen-2-yl)pteridine-2,4,7-triamine (32)] | 8.1 µM | 14.2 µM | 24.4 µM | –
11 | Nc1cccc(-c2nc3c(N)nc(N)nc3nc2N)c1 [6-(3-aminophenyl)pteridine-2,4,7-triamine (21)] | 12.4 µM | – | 32.4 µM | –
12 | Nc1nc(N)c2nc(-c3cc(F)ccc3F)c(N)nc2n1 [6-(2,5-difluorophenyl)pteridine-2,4,7-triamine (28)] | 38.4 µM | – | – | –
13 | Nc1nc(N)c2nc(-c3cccnc3)c(N)nc2n1 [6-(pyridin-3-yl)pteridine-2,4,7-triamine (33)] | 15.5 µM | – | 16.1 µM | –
14 | Nc1nc(N)c2nc(-c3ccccc3)c(N)nc2n1 [Pteridine deriv. 11] | 26.8 µM | 36.8 µM | 36.4 µM | –
15 | Nc1nc(N)c2nc(-c3cccc(Cl)c3)c(N)nc2n1 [Epiblastin A] | 4.7 µM | 8.9 µM | 0.5 µM | IC50 [4]: 8.3 µM; IC50 [5]: 27.4 µM; IC50 [6]: 45.1 µM; IC50 [7]: 38.1 µM; IC50 [8]: 24.2 µM
16 | Nc1nc(N)c2nc(-c3cccc(Oc4ccccc4)c3)c(Cc3ccccc3)nc2n1 [7-benzyl-6-(3-phenoxyphenyl)pteridine-2,4-diamine (36)] | 6.6 µM | 5.5 µM | 9.6 µM | –
17 | Nc1nc(N)c2nc(-c3csc4ccccc34)c(N)nc2n1 [6-(1-benzothiophen-3-yl)pteridine-2,4,7-triamine (31)] | 0.6 µM | 5.6 µM | 2.8 µM | –
18 | Nc1nc(N)c2nc(-c3cccc(F)c3)c(N)nc2n1 [6-(3-fluorophenyl)pteridine-2,4,7-triamine (16)] | 14.4 µM | 33.3 µM | 61.8 µM | –
